# Reference: patent US4465851A, “Guanidinocyclohexanecarboxylic acid derivatives” (Nippon Chemiphar Co., Ltd., priority 1981, dated 1984)
# Structures can show the parent of a compound that is named as a salt.
# Experiments:
# guinea pigs ilea [1] = assay: Anti-acetylcholine action; set-up: species or system guinea pig; conditions: Cavia porcellus, read-out: Anti-acetylcholine effect inhibition of contraction; for inhibition at 25 µg/mL: final conc. 25 μg/ml; for inhibition at 50 µg/mL: final conc. 50 μg/ml
# From the text: (§1) Anti-acetylcholine and anti-histamine effects of the present compounds were examined using guinea pigs ilea by the usual method.
# guinea pigs ilea [2] = assay: Anti-histamine action; set-up: species or system guinea pig; conditions: Cavia porcellus, read-out: Anti-histamine effect inhibition of contraction; for inhibition at 25 µg/mL: final conc. 25 μg/ml; for inhibition at 50 µg/mL: final conc. 50 μg/ml
# From the text: as §1
# Chymotrypsin = Chymotrypsin (Bos taurus, UniProt P00766); assay: Inhibition of chymotrypsin (ATE hydrolysis); format: biochemical; conditions: 15 mM ATE, 30 minutes, 37° C., pH 8.0; read-out: Concentration for 50% inhibition (IC50), chymotrypsin
# Protocol: (§2) Inhibitory effects on the TAMe(N^α -tosyl-L-arginine methyl ester) hydrolytic activity of trypsin, plasmin, plasma kallikrein and thrombin were estimated by Hesterin's method modified by Roberts. Inhibition of the BAEe(N^α -benzoyl-L-arginine ethyl ester) hydrolytic activity of pancreas kallikrein was determined by Hesterin's method after incubation at 37° C. for 30 minutes in a 0.1M borate buffer, pH 8.0. Inhibitory effects on urokinase were determined by the chromotropic acid method after incubation of 60 iu of urokinase with 10 mM AGLMe(acetylglycyl-L-lysine methyl ester) at 37° C. for 30 minutes in a 0.06M phosphate buffer, pH 7.5, containing 0.09M NaCl. Inhibition of chymotrypsin was determined by Hesterin's method after incubation with 15 mM ATE (N^α -acetyl-L-tyrosine ethyl ester) for 30 minutes at 37° C. in a 0.1M borate buffer, pH 8.0.
# Urokinase = Urokinase (Homo sapiens, UniProt P00749); assay: Inhibition of urokinase (AGLMe, chromotropic acid method); format: biochemical; conditions: 60 iu urokinase, 10 mM AGLMe, 37° C., 30 minutes, pH 7.5; read-out: Concentration for 50% inhibition (IC50), urokinase
# Protocol: as §2
# Pancreas kallikrein = Pancreas kallikrein (Sus scrofa, UniProt P00752); assay: Inhibition of pancreas kallikrein (BAEe hydrolysis); format: biochemical; conditions: BAEe substrate, 37° C., 30 minutes, pH 8.0; read-out: Concentration for 50% inhibition (IC50), pancreas kallikrein
# Chain of Pancreas kallikrein (P00752 15-246 limits assumed): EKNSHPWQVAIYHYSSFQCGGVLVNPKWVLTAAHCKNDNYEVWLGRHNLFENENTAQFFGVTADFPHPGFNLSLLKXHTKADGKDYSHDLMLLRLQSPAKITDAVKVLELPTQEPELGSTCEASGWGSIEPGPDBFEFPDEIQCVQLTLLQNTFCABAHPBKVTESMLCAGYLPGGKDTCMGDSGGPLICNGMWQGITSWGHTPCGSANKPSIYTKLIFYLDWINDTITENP
# Protocol: as §2
# [3] = tested on: ileum of each sensitized guinea pig; assay: Schultz-Dale reaction; conditions: Cavia porcellus, read-out: Inhibition of contraction (Schultz-Dale reaction); for inhibition at 25 µg/mL: final conc. 25 μg/ml; for inhibition at 50 µg/mL: final conc. 50 μg/ml
# Protocol: Male guinea pigs were sensitized with bovine serum albumin by Freund's complete adjuvant method. After a lapse of 10 days, the animals were sensitized once more as described above. After two more weeks, an ileum of each sensitized guinea pig was removed and used for experiment. The ileum was equipped in a magnus tube containing each test sample, and 500 μg of bovine serum albumin was added. The contraction of the ileum was determined.
# Plasma kallikrein = Plasma kallikrein (Homo sapiens, UniProt P03952); assay: Inhibition of plasma kallikrein (TAMe hydrolysis); format: biochemical; conditions: TAMe substrate; read-out: Concentration for 50% inhibition (IC50), plasma kallikrein
# Chain of Plasma kallikrein (P03952 20-390 limits assumed, species assumed): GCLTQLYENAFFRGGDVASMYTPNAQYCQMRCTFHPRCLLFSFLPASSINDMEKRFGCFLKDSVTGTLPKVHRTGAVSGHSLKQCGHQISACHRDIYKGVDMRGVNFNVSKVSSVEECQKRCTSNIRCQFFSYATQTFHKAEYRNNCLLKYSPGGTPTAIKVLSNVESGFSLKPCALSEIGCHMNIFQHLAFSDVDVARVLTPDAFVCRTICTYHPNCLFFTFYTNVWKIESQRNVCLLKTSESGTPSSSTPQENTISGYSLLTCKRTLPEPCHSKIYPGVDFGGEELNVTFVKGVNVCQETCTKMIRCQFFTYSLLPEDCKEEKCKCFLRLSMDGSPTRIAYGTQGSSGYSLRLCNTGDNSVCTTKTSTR
# Protocol: as §2
# Trypsin = molecular target: T1, Trypsin (Bos taurus, UniProt P00760); assay: Inhibition of trypsin (TAMe hydrolysis); format: biochemical; conditions: TAMe substrate; read-out: Concentration for 50% inhibition (IC50), trypsin
# T1 sequence (P00760 24-246): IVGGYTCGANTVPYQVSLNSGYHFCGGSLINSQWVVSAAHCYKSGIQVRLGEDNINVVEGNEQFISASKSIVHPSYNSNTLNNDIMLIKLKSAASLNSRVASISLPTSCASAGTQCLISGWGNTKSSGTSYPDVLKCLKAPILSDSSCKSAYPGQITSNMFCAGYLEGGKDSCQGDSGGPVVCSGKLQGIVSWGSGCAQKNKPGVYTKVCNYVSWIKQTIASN
# Protocol: as §2
# Thrombin = Thrombin (Homo sapiens, UniProt P00734); assay: Inhibition of thrombin (TAMe hydrolysis); format: biochemical; conditions: TAMe substrate; read-out: Concentration for 50% inhibition (IC50), thrombin
# Mast cells [4] = assay: Effects on histamine release from mast cells induced by compound 48/80; format: cell-based; conditions: Mast cell; 10 μg/ml test compound; compound 48/80 induced; read-out: Inhibition of histamine release
# Protocol: After incubation for 20 minutes at 37° C., the suspension was cooled to 4° C., and released histamine was determined as described by Shore et al. All samples examined were recognized to cause no disturbance in the fluorometric assay.
# Plasmin = Plasmin (Homo sapiens, UniProt P00747); assay: Inhibition of plasmin (TAMe hydrolysis); format: biochemical; conditions: TAMe substrate; read-out: Concentration for 50% inhibition (IC50), plasmin
# Chain of Plasmin (P00747 97-580 limits assumed, species assumed): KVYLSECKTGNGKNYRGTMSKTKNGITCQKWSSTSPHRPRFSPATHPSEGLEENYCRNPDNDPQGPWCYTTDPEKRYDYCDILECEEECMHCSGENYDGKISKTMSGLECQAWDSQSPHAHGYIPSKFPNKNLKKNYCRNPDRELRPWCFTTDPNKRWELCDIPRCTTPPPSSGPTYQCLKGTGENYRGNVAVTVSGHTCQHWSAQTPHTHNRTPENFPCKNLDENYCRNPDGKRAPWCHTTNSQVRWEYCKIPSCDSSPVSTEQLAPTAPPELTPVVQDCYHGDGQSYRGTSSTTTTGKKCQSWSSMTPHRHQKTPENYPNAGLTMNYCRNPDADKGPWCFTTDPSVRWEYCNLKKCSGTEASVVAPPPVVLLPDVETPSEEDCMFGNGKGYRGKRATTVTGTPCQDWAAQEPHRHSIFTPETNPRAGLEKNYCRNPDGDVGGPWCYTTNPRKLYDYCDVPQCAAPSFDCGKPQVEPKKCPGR
# Protocol: as §2
# Mast cells [5] = conditions: Life Sciences 10, 805-812 (1971); Internal Medicine 42(6), 933 (1978); cited from earlier work
SMILES,inhibition at 25 µg/mL (guinea pigs ilea [2]) [%],inhibition at 50 µg/mL (guinea pigs ilea [2]) [%],IC50 (Chymotrypsin) [µM],IC50 (Urokinase) [µM],IC50 (Pancreas kallikrein) [µM],IC50 (Thrombin) [µM],inhibition at 10 µg/mL (Mast cells [4]) [%],other results
"Cc1ccc(OC(=O)[C@H]2CC[C@H](CNC(=N)N)CC2)cc1 [Compound 3, 4'-Methylphenyl trans-4-guanidinomethylcyclohexanecarboxylate hydrochloride]",98,100,70,260,320,,,inhibition at 25 µg/mL (guinea pigs ilea [1]): 100%; inhibition at 50 µg/mL (guinea pigs ilea [1]): 100%; inhibition at 25 µg/mL [3]: 83.3%; inhibition at 50 µg/mL [3]: 100%
"N=C(N)NC[C@H]1CC[C@H](C(=O)Oc2ccccc2Cl)CC1 [Compound 5, 2'-Chlorophenyl trans-4-guanidinomethylcyclohexanecarboxylate hydrochloride]",,,12,160,90,160,,IC50 (Plasma kallikrein): 300 µM; IC50 (Trypsin): 390 µM
"N=C(N)NC[C@H]1CC[C@H](C(=O)Oc2ccc(Br)cc2)CC1 [Compound 6, 4'-Bromophenyl trans-4-guanidinomethylcyclohexanecarboxylate hydrochloride]",,,,,150,180,,IC50 (Trypsin): 260 µM
"N=C(N)NC[C@H]1CC[C@H](C(=O)Oc2ccc(I)cc2)CC1 [Compound 7, 4'-Iodophenyl trans-4-guanidinomethylcyclohexanecarboxylate hydrochloride]",,,,,,,18.4,
"N=C(N)NC[C@H]1CC[C@H](C(=O)Oc2ccc(Cl)cc2)CC1 [Compound 10, 4'-Chlorophenyl trans-4-guanidinomethylcyclohexanecarboxylate hydrochloride]",100,100,,,,,,inhibition at 25 µg/mL (guinea pigs ilea [1]): 89.8%; inhibition at 50 µg/mL (guinea pigs ilea [1]): 100%; inhibition at 25 µg/mL [3]: 100%; inhibition at 50 µg/mL [3]: 100%
"Cc1ccc(C(C)C)c(OC(=O)[C@H]2CC[C@H](CNC(=N)N)CC2)c1 [Compound 13, 2'-iso-Propyl-5'-methylphenyl trans-4-guanidinomethylcyclohexanecarboxylatehydrochloride]",,,,30,400,,,IC50 (Plasmin): 400 µM
"Cc1cc(OC(=O)[C@H]2CC[C@H](CNC(=N)N)CC2)c(C(C)C)cc1Cl [Compound 14, 2'-iso-Propyl-4'-chloro-5'-methylphenyl trans-4-guanidinomethylcyclohexanecarboxylate hydrochloride]",,,100,,130,240,38.8,IC50 (Plasmin): 400 µM; IC50 (Trypsin): 190 µM
"N=C(N)NC[C@H]1CC[C@H](C(=O)Oc2ccc([N+](=O)[O-])cc2)CC1 [Compound 15, 4'-Nitrophenyl trans-4-guanidinomethylcyclohexanecarboxylate hydrochloride]",,,2.8,31,25,95,,IC50 (Plasma kallikrein): 300 µM; IC50 (Trypsin): 90 µM
"N#Cc1ccccc1OC(=O)[C@H]1CC[C@H](CNC(=N)N)CC1 [Compound 21, 2'-Cyanophenyl trans-4-guanidinomethylcyclohexanecarboxylate hydrochloride]",,,,110,30,,,IC50 (Plasmin): 200 µM
"N=C(N)NC[C@H]1CC[C@H](C(=O)Oc2ccc3c(c2)CCC3)CC1 [Compound 23, 5'-Indanyl trans-4-guanidinomethylcyclohexanecarboxylate hydrochloride]",,,,,,,12.7,
"N=C(N)NC[C@H]1CC[C@H](C(=O)Oc2ccc3ccc(=O)oc3c2)CC1 [Compound 24, 7'-(2'-Oxochromenyl)trans-4-guanidinomethylcyclohexanecarboxylate hydrochloride]",,,6,50,20,230,,
"N=C(N)NC[C@H]1CC[C@H](C(=O)Oc2ccc(Cl)c3ccccc23)CC1 [Compound 28, 4'-Chloronaphthyl trans-4-guanidinomethylcyclohexanecarboxylate hydrochloride]",99.7,100,,,,,60.9,inhibition at 25 µg/mL (guinea pigs ilea [1]): 68%; inhibition at 50 µg/mL (guinea pigs ilea [1]): 76%; inhibition at 25 µg/mL [3]: 80%; inhibition at 50 µg/mL [3]: 100%
"N=C(N)NC[C@H]1CC[C@H](C(=O)Oc2ccc3ccccc3c2[N+](=O)[O-])CC1 [Compound 29, 2'-(1'-Nitro)naphthyl trans-4-guanidinomethylcyclohexanecarboxylate hydrochloride]",,,,,,,20.6,inhibition at 25 µg/mL (guinea pigs ilea [1]): 52%; inhibition at 50 µg/mL (guinea pigs ilea [1]): 80%
"N=C(N)NC[C@H]1CC[C@H](C(=O)Oc2ccccc2)CC1 [Compound A, Phenyl trans4-guanidinomethylcyclohexanecarboxylate hydrochloride, reference compound]",100,100,,,,,5,inhibition at 25 µg/mL [3]: 0%; inhibition at 50 µg/mL [3]: 0%
"O=C(O)c1cc(=O)c2c(OCC(O)COc3cccc4oc(C(=O)O)cc(=O)c34)cccc2o1 [DSCG, Disodium cromoglycate, reference compound]",0,0,,,,,10,inhibitory effects on histamine release from mast cells (Mast cells [5]): has inhibitory effects on histamine release from mast cells
